What all share (test): MIC by agar plate dilution method on standard strains (Example 3)
Holding throughout (assay type): cell-based
What all share (conditions): read-out: MIC

The test system of experiment [1] is Moraxella (Branhamella) catarrhalis ATCC25240. The method, then: (§1) Drug solutions at a concentration 10 times as high as the maximum applicable concentration were prepared as original solutions of test drugs given in Table 2 (as to solvents used for this purpose, reference should be made also to Table 2). Serial two-fold dilution series of the original solutions were prepared at desired stages, and 1 ml each of the diluted drug solutions was added to 9 ml of media given in Table 3 to prepare drug plates. […] • 1) Bacterial solutions stocked at −80° C. were inoculated on agar media (as to media used, reference should be made to Table 3), and then incubated at 37° C. overnight. When desired, subculturing was conducted once more on the same agar media (by overnight incubation at 37° C.). • 2) Colonies growing on the agar media were sampled by a platinum loop, suspended in liquid media (reference should be made to Table 3) and statically incubated at 37° C. for 18 hours (preculturing). • 3) Preculturing was continued up to McFarland 0.5 (McFarland 0.5=about 10^8 CFU/ml), and then the culture broths were diluted with Muellar Hinton Broth to make 10^6 CFU/ml. 5 μl each of the diluted solutions were inoculated on the above-mentioned drug plates by an inoculator Microplanter. […] Thus, bacterial solutions at about 10^8 CFU/ml can be easily prepared by use of McFarland 0.5. Bacterial solutions at such a turbidity are commercially available, but can be easily prepared.

In experiment [2] the test system is Moraxella (Branhamella) catarrhalis ATCC43617. The method, then: as §1
Experiment [3] concerns Pseudomonas aeruginosa ATCC27853. The method, then: as §1
Experiment [4] deals with Serratia marcescens ATCC13880. The method, then: as §1
Experiment [5] deals with Staphylococcus aureus ATCC29247. The method, then: as §1
In experiment [6] the test system is Staphylococcus aureus ATCC6538P. As to the method:
as §1

Experiment [7] has as its system Streptococcus agalactiae ATCC13813. The method, then:
as §1

For experiment [8], the system named is Streptococcus pneumoniae ATCC49619. As to the method:
as §1

In experiment [9] the test system is Streptococcus pneumoniae ATCC6301. The method, then: as §1
Experiment [10] has as its system Streptococcus pneumoniae ATCC6302. As to the method:
as §1

The subject of experiment [11] is Streptococcus pneumoniae ATCC6303. The method, then: as §1
Experiment [12] relates to Streptococcus pneumoniae ATCC6306. The method, then: as §1
The subject of experiment [13] is Streptococcus pyogenes ATCC12344. As to the method:
as §1

Experiment [14] relates to Streptococcus pyogenes ATCC12353. As to the method:
as §1

Experiment [15] has as its system Streptococcus pyogenes ATCC12385. The method, then:
as §1

Consider one compound from patent publication US20050175550A1, “Compositions for oral use” (priority 2000, published 2005).

The term MIC denotes the lowest concentration found to suppress growth.

≈ marks a conversion by molar mass, not a printed value.

As for `CC[C@H]1OC(=O)[C@H](C)[C@@H](O[C@H]2C[C@@](C)(OC)[C@@H](O)[C@H](C)O2)[C@H](C)[C@@H](O[C@@H]2O[C@H](C)C[C@H](N(C)C)[C@H]2O)[C@](C)(OC)C[C@@H](C)C(=O)[C@H](C)[C@@H](O)[C@]1(C)O` [CAM, Clarithromycin], the MIC in experiment [1] was 0.2 µg/mL (≈ 0.267 µM); in experiment [2], 0.2 µg/mL (≈ 0.267 µM); in [3], more than 100 µg/mL; in experiment [4], more than 100 µg/mL; in experiment [5] it was 50 µg/mL (≈ 66.8 µM); in [6], 0.2 µg/mL (≈ 0.267 µM). Moreover, the minimum inhibitory concentration (MIC) in experiment [7] came to 0.05 µg/mL (≈ 0.0668 µM); in experiment [8], 0.05 µg/mL (≈ 0.0668 µM); in experiment [9], 0.05 µg/mL (≈ 0.0668 µM); in experiment [10] it was 0.1 µg/mL (≈ 0.134 µM); in experiment [11] it was 0.05 µg/mL (≈ 0.0668 µM); in experiment [12], 0.1 µg/mL (≈ 0.134 µM). Further, the MIC stood at 0.05 µg/mL (≈ 0.0668 µM) in [13], 0.1 µg/mL (≈ 0.134 µM) in [14] and 0.1 µg/mL (≈ 0.134 µM) in [15].
